Entries after “also recorded” stand apart in the source; their conditions may differ.
Columns and labels:
[1] = test system: NF-kB; assay: NF-kB-luciferase reporter gene assay in L428 cells; format: cell-based, human; conditions: Table 6 summary; also: key: +: active; −: inactive
Experimental: FIG. 7 includes a vertical bar graph showing a dose response of NF-kB activation according to an NF-kB reporter gene luciferase assay. L428 cells were stably transfected with the NF-kB luciferase reporter gene. The cells were incubated with the compounds at different concentrations for 2 hours. […] The results represent the percentage of NF-kB activation as compared to vehicle (DMSO) treated cells. All samples were normalized to protein concentration. Mean+SD, Two-way ANOVA and Tukey's multiple comparison test. 95% confidence interval (p-values *≤0.0332, **≤0.0021, ***≤0.0002).
L428 cells stable transfectants with the luciferase NF-kB-Luc reporter gene were generated previously described (Ozer et al., 2009), and were maintained in 500 μg/ml of G418 (G418 disulfate salt, Sigma-Aldrich). The cells (5×10^5 /well in triplicate) were incubated for 2 hrs. in 1 ml of medium containing the solvent (DMSO) or different concentrations of the molecules tested. Cells were then harvested, lysed, and monitored by a luciferase reporter assay kit (Promega) according to the manufacturer's instructions. Measurements were carried out using a luminometer (Promega, GLOMAX™ 20/20 Luminometer). Data were normalized to the protein concentration in each lysate as measured by the Bradford method (BioRad) and normalized to the control. Experiments were repeated at least three times.

[2] = test system: rhlR-rhlI system; assay: Bioluminescence QS reporter bacteria, rhlRI; format: cell-based, P. aeruginosa; conditions: Pseudomonas aeruginosa
Experimental: (§1) FIGS. 13A-13C include vertical bar graphs showing the dose response inhibition of QS by PL-18. Bioluminescence indicator bacteria containing the P. aeruginosa reporter genes rhlRI (13A) and lasRI (13B) were used. The reporter bacteria were incubated with and range of PL-18 concentrations or DMSO, together with (+AI) or without (−AI) the proper auto-inducer. Bioluminescence was recorded at 15 min intervals for 10 hrs at 37° C. The maximum signal in each group was normalized to the inducer's bioluminescence maximum signal with 0.5% DMSO. Mean±SD, One-way ANOVA followed by Dunett's multiple comparisons test was performed (p-value ***≤0.0002). N=9 (triplicate samples in three independent experiments). (13C) RT-qPCR of P. aeruginosa (PA01) QS genes. PA01 was co-incubated with two doses of PL-18 for seven hours, lysed and total RNA was extracted and converted to cDNA followed by target genes qPCR amplification. N≥16, Mean±SD. Two-way ANOVA, 95% confidence interval.
(§2) The inhibition of rhlR-rhlI system was slightly better than the inhibition of lasR-lasI. […] The relative transcription levels of QS genes lasR, lasI, rhlR and rhlI, was determined by RT-qPCR.

[3] = test system: lasR-lasI; assay: Bioluminescence QS reporter bacteria, lasRI; format: cell-based, P. aeruginosa; conditions: Pseudomonas aeruginosa
Experimental: as §1, §2

[4] = test system: QS genes lasR, lasI, rhlR and rhlI; assay: RT-qPCR of P. aeruginosa (PA01) QS genes; format: cell-based; conditions: PA01 co-incubated seven hours
Experimental: as §1, §2

[5] = test system: pyocyanin; assay: Pyocyanin secretion by P. aeruginosa; format: cell-based; conditions: cell-free culture medium, spectrometry
Experimental: (§3) FIGS. 14A-14B include vertical bar graphs showing that PL-18 inhibition effects on secretion of virulence factors by P. aeruginosa. (14A) Pyocyanin was extracted in the chloroform-HCl method and measured in a plate-reader at 380 nm. (14B) Determination of rhamnolipids content was measured at 570 nm of the cell-free supernatant after adjustment to pH-2. All results were normalized and compere to the control group-DMSO 0.16%. Mean±SD, One-way ANOVA followed by Dunett's multiple comparisons test (p-values *≤0.0332, ***≤0.0002). N=9 (in three independent experiments).
(§4) To test whether PL-18 inhibits virulence effectors secreted by P. aeruginosa, the relative abundance of the virulence factors pyocyanin and rhamnolipids in the bacterial cell-free culture medium was determined by spectrometry.

[6] = test system: rhamnolipids; assay: Rhamnolipids secretion by P. aeruginosa; format: cell-based; conditions: cell-free culture medium, spectrometry
Experimental: as §3, §4

With `COc1cc(/C=C/C(=O)N2CCC=CC2=O)cc(O)c1O` [PL-18, Dihydroxy piperlongumine] the Anti-inflammatory [1] was “+”, the IC50 ([2]; read-out: IC50, rhlR-rhlI) was 18 µM and the inhibition at 160 µM ([2]; read-out: Inhibition of rhlR-rhlI) was 85.6%. For the same molecule, the IC50 ([3]; read-out: IC50, lasR-lasI) was 22 µM, the inhibition at 160 µM ([3]; read-out: lasR-lasI inhibition) was 76.8% and the “Relative transcription levels of QS genes lasR, lasI, rhlR and rhlI” value [4] was “strongly decreased”. For the same molecule, the “Inhibition of pyocyanin secretion” value [5] was “inhibit both virulence factors in a dose dependent manner; also recorded: effectively attenuate” and the “Inhibition of rhamnolipids secretion” value [6] was “inhibit both virulence factors in a dose dependent manner; also recorded: effectively attenuate”.
